According to patent US20040157913A1, “Kappa opiate agonists for the treatment of bladder diseases” (priority 2001, published 2004):

Legend:
Format in all cases: in vivo
[1] = Urine excretion in normal rats (without induction of increased urine excretion); settings: no saline induction, dose 30 mg/kg po, increase as a function of dose
Description: (§1) A model for measuring the effect on urine excretion is described in Lipschitz et al., J. Pharmacol. Exp. Ther. 1943; 79: 97-110. The substance to be investigated is given to rats who had previously been denied food overnight while being given free access to water. Increased urine excretion is provoked by simultaneous intraperitoneal injection of 100 ml/kg of physiological saline solution. Immediately after administration of the substance, the bladder was emptied by gentle massage of the abdomen above the bladder. The rats are subsequently kept in metabolism cages in which the urine is collected over a period of 6 hours.
The effect on urine excretion in normal rats is tested analogously (i.e. without induction of increased urine excretion, see above). N-Methyl-N-[(1S)-1-phenyl-2-((3S)-3-hydroxypyrrolidin-1-yl)ethyl]-2,2-diphenylacetamide increases urine excretion as a function of dose, with 5.5 times the amount of urine being excreted at only 30 mg/kg po.

[2] = system: irritable bladder in female apes; assay: Animal model for irritable bladder induced by direct infusion of acetone into the bladder (Ghoniem et al.); settings: doses of 3, 10 and 30 mg/kg
Description: The classical animal model for irritable bladder is described in Ghoniem et al., Neurourol. Urodyn. 1995; 14: 657-65. In female apes, irritable bladder is induced by direct infusion of acetone into the bladder. The animals are kept in metabolism cages designed for continuous monitoring of miction (urination) of the animals. The frequency, emptying volumes and flow rate of the urine are measured continuously via urine flow meters. […] Furthermore, considerable changes in bladder physiology are observed in the first week after acetone infusion: the bladder performance, measured in ml/cm, drops by almost 95%. The emptying behaviour also changes considerably, with the frequency of emptying increasing greatly with the picture of frequent dribbling and at the same time with an emptying volume reduced by about 70%. […] These changes in behaviour observed in apes are consistent with the clinical picture of considerable discomfort and pain.

[3] = Urine excretion in rats with increased urine excretion provoked by intraperitoneal saline (Lipschitz model); settings: rats fasted overnight, 100 ml/kg physiological saline i.p., urine collected over 6 hours, dose 100 mg/kg; increase as a function of dose
Description: as §1

Question: Which “amount of urine excreted (multiple)” value [1] does the source give for CN(C(=O)C(c1ccccc1)c1ccccc1)[C@H](CN1CC[C@H](O)C1)c1ccccc1 [N-methyl-N-[(1S)-1-phenyl-2-((3S)-3-hydroxypyrrolidin-1-yl)ethyl]-2,2-diphenylacetamide] here?
Answer: 5.5 times

Question: And the “effect on bladder function” value [2]?
Answer: normalises bladder function in a dose-dependent manner

Question: And the “amount of urine excreted (multiple)” value [3]?
Answer: twice the amount of urine
